Reference: patent US10710986B2, “PD-1/PD-L1 inhibitors” (Gilead Sciences, Inc., priority 2018, dated 2020)

target: PD-1/PD-L1 (Homo sapiens (Human), UniProt Q9NZQ7); test: PD-1/PD-L1 biochemical protein-protein interaction assay (ALPHA); conditions: 0.3 nM His tagged PD-L1, 2.5 nM biotinylated Fc-PD-1, 60 minutes at 25° C., read-out: IC50 PD-L1-PD1
Experimental: Binding of the protein pairs is measured using a bead based Amplified Luminescent Proximity Homogeneous Assay (ALPHA) platform. Binding of each protein pair results in proximity of the donor and acceptor beads which leads to an increase in ALPHA signal. […] Assays are performed in 25 mM Hepes (pH 7.4), 150 mM NaCl, 3.4 mM EDTA, 0.005% Tween 20, and 0.01% BSA. […] After an assay reaction time of 60 minutes at 25° C., binding was measured with addition of 20 μg/mL ALPHA assay acceptor beads (anti-His coated) and 20 µg/mL ALPHA assay donor beads (streptavidin coated). IC50 values were calculated from the fit of the dose-response curves to a four-parameter equation.

Chain of PD-1/PD-L1 (Q9NZQ7 19-238): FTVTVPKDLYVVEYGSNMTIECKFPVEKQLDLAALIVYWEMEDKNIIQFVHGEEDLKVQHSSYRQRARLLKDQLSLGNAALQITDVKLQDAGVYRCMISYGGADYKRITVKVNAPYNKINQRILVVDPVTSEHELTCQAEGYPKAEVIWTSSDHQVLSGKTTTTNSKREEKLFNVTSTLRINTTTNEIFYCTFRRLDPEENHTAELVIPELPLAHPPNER

Compared with `COc1nc(-c2cccc(-c3cccc(-c4cnc(CNC[C@@H]5CCC(=O)N5)c(OC)n4)c3Cl)c2Cl)cnc1CNCC1CCC(C(N)=O)O1` (some centres unmarked) [compound 56], `CNc1nc(-c2cccc(-c3cccc(-c4cnc(CNC[C@@H]5CCC(=O)N5)c(OC)n4)c3Cl)c2Cl)cnc1CNC[C@@H]1CCC(=O)N1` [compound 63] is 33-fold higher in IC50: 0.09 nM for the first, 2.99 nM for the second.

Going from `CNc1nc(-c2cccc(-c3cccc(-c4cnc(CNC[C@H]5C[C@H](O)C5)c(NC)n4)c3Cl)c2Cl)cnc1CNC[C@H]1C[C@H](O)C1` [compound 57] to `CNc1nc(-c2cccc(-c3cccc(-c4cnc(CNC[C@@H]5CCC(=O)N5)c(NC)n4)c3Cl)c2Cl)cnc1CNC[C@@H]1CCC(=O)N1` [compound 80], the IC50 falls from 8.78 nM to 0.36 nM (24-fold).

First: CNc1nc(-c2cccc(-c3cccc(-c4cnc(CN)c(NC)n4)c3Cl)c2Cl)cnc1CN [compound 58]
Second: CNCc1ncc(-c2cccc(-c3cccc(-c4cnc(CNC)c(NC)n4)c3Cl)c2Cl)nc1NC [compound 74]
The IC50 of the first is 5-fold higher: 6.76 nM for the first, 1.34 nM for the second.

`CNc1nc(-c2cccc(-c3cccc(-c4cnc(CN5CC6(C5)CN(C(C)=O)C6)c(OC)n4)c3Cl)c2Cl)cnc1CN1CC2(C1)CN(C(C)=O)C2` [compound 59] and `CNc1nc(-c2cccc(-c3cccc(-c4cnc(CN5CC6(C5)CN(C(C)=O)C6)c(NC)n4)c3Cl)c2Cl)cnc1CN1CC2(C1)CN(C(C)=O)C2` [compound 76] are within 1.5-fold of each other in IC50: 0.1 nM for the first, 0.09 nM for the second.

`CNc1nc(-c2cccc(-c3cccc(-c4cnc(CN5CC(O)C5)c(OC)n4)c3Cl)c2Cl)cnc1CN1CC(O)C1` [compound 60] and `CNc1nc(-c2cccc(-c3cccc(-c4cnc(CN5CC(O)C5)c(NC)n4)c3Cl)c2Cl)cnc1CN1CC(O)C1` [compound 77] are within 1.5-fold of each other in IC50: 0.14 nM for the first, 0.192 nM for the second.

`CNc1nc(-c2cccc(-c3cccc(-c4cnc(CN5CC6(CNC(=O)C6)C5)c(OC)n4)c3Cl)c2Cl)cnc1CN1CC2(CNC(=O)C2)C1` [compound 61] and `CNc1nc(-c2cccc(-c3cccc(-c4cnc(CN5CC6(CNC(=O)C6)C5)c(NC)n4)c3Cl)c2Cl)cnc1CN1CC2(CNC(=O)C2)C1` [compound 78] are within 1.5-fold of each other in IC50: 0.07 nM for the first, 0.064 nM for the second.

Going from `CNc1nc(-c2cccc(-c3cccc(-c4cnc(CN5CC6(CCC(=O)N6)C5)c(OC)n4)c3Cl)c2Cl)cnc1CN1CC2(CCC(=O)N2)C1` [compound 62] to `CNc1nc(-c2cccc(-c3cccc(-c4cnc(CN5CC6(CCC(=O)N6)C5)c(NC)n4)c3Cl)c2Cl)cnc1CN1CC2(CCC(=O)N2)C1` [compound 79], the IC50 rises from 0.16 nM to 0.292 nM (1.8-fold). The first is the more potent here.

Compared with `CCNc1nc(-c2cccc(-c3cccc(-c4cnc(CN5CC6(C5)CN(C(C)=O)C6)c(NCC)n4)c3Cl)c2Cl)cnc1CN1CC2(C1)CN(C(C)=O)C2` [compound 65], `CCNc1nc(-c2cccc(-c3cccc(-c4cnc(CN5CC6(CNC(=O)C6)C5)c(NCC)n4)c3Cl)c2Cl)cnc1CN1CC2(CNC(=O)C2)C1` [compound 67] is 1.8-fold higher in IC50: 0.165 nM for the first, 0.292 nM for the second.

First: CCNc1nc(-c2cccc(-c3cccc(-c4cnc(CN5CC(O)C5)c(NCC)n4)c3Cl)c2Cl)cnc1CN1CC(O)C1 [compound 66]
Second: CCc1nc(-c2cccc(-c3cccc(-c4cnc(CN5CC(O)C5)c(CC)n4)c3Cl)c2Cl)cnc1CN1CC(O)C1 [compound 82]
The IC50 of the first is 1.8-fold higher: 0.61 nM for the first, 0.335 nM for the second. The second is the more potent here.

Going from `CCNc1nc(-c2cccc(-c3cccc(-c4cnc(CN5CC6(CCC(=O)N6)C5)c(NCC)n4)c3Cl)c2Cl)cnc1CN1CC2(CCC(=O)N2)C1` [compound 68] to `CCc1nc(-c2cccc(-c3cccc(-c4cnc(CN5CC6(CCC(=O)N6)C5)c(CC)n4)c3Cl)c2Cl)cnc1CN1CC2(CCC(=O)N2)C1` [compound 84], the IC50 falls from 0.403 nM to 0.189 nM (2.1-fold). The second is the more potent here.

Going from `CNc1nc(-c2cccc(-c3cccc(-c4cnc(CN5CC(F)C5)c(NC)n4)c3Cl)c2Cl)cnc1CN1CC(F)C1` [compound 69] to `CNc1nc(-c2cccc(-c3cccc(-c4cnc(CN5CC(OC)C5)c(NC)n4)c3Cl)c2Cl)cnc1CN1CC(OC)C1` [compound 75], the IC50 falls from 2.62 nM to 0.877 nM (3-fold).

Compared with `CNc1nc(-c2cccc(-c3cccc(-c4cnc(CN5CCCC5)c(NC)n4)c3Cl)c2Cl)cnc1CN1CCCC1` [compound 70], `CNc1nc(-c2cccc(-c3cccc(-c4cnc(CN5CCC5)c(NC)n4)c3Cl)c2Cl)cnc1CN1CCC1` [compound 72] is 4-fold lower in IC50: 0.784 nM for the first, 0.198 nM for the second.

Going from `CNc1nc(-c2cccc(-c3cccc(-c4cnc(CN(C)C)c(NC)n4)c3Cl)c2Cl)cnc1CN(C)C` [compound 71] to `CNCc1ncc(-c2cccc(-c3cccc(-c4cnc(CN5CCC5)c(NC)n4)c3Cl)c2Cl)nc1NC` [compound 73], the IC50 rises from 0.081 nM to 0.37 nM (4.6-fold).

Going from `OC1CN(Cc2cnc(-c3cccc(-c4cccc(-c5cnc(CN6CC(O)C6)cn5)c4Cl)c3Cl)cn2)C1` [compound 81] to `Cc1nc(-c2cccc(-c3cccc(-c4cnc(CN5CC(O)C5)c(C)n4)c3Cl)c2Cl)cnc1CN1CC(O)C1` [compound 93], the IC50 falls from 4.18 nM to 0.566 nM (7.4-fold). The second is the more potent here.

First: CCc1nc(-c2cccc(-c3cccc(-c4cnc(CN5CC6(CNC(=O)C6)C5)c(CC)n4)c3Cl)c2Cl)cnc1CN1CC2(CNC(=O)C2)C1 [compound 83]
Second: Cc1nc(-c2cccc(-c3cccc(-c4cnc(CN5CC6(CNC(=O)C6)C5)c(C)n4)c3Cl)c2Cl)cnc1CN1CC2(CNC(=O)C2)C1 [compound 94]
The IC50 of the first is 1.5-fold lower: 0.56 nM for the first, 0.862 nM for the second. The first is the more potent here.

Going from `CCc1nc(-c2cccc(-c3cccc(-c4cnc(CNC[C@@H]5CCC(=O)N5)c(CC)n4)c3Cl)c2Cl)cnc1CNC[C@@H]1CCC(=O)N1` [compound 85] to `Cc1nc(-c2cccc(-c3cccc(-c4cnc(CNC[C@@H]5CCC(=O)N5)c(C)n4)c3Cl)c2Cl)cnc1CNC[C@@H]1CCC(=O)N1` [compound 96], the IC50 rises from 0.976 nM to 1.5 nM (1.5-fold). The first is the more potent here.

Compared with `COc1nc(-c2cccc(-c3cccc(-c4cnc(CNC56CC(C5)C6)c(OC)n4)c3Cl)c2Cl)cnc1CNC12CC(C1)C2` [compound 86], `COC1CN(Cc2ncc(-c3cccc(-c4cccc(-c5cnc(CN6CC(OC)C6)c(C)n5)c4Cl)c3Cl)nc2C)C1` [compound 92] is 3-fold lower in IC50: 3.05 nM for the first, 1.03 nM for the second. The second is the more potent here.

Compared with `COC1CN(Cc2ncc(-c3cccc(-c4cccc(-c5cnc(CN6CC(OC)C6)c(SC)n5)c4Cl)c3Cl)nc2SC)C1` [compound 87], `CSc1nc(-c2cccc(-c3cccc(-c4cnc(CN5CC(O)C5)c(SC)n4)c3Cl)c2Cl)cnc1CN1CC(O)C1` [compound 88] is 27-fold lower in IC50: 5.88 nM for the first, 0.217 nM for the second.

Going from `CSc1nc(-c2cccc(-c3cccc(-c4cnc(CN5CC6(CNC(=O)C6)C5)c(SC)n4)c3Cl)c2Cl)cnc1CN1CC2(CNC(=O)C2)C1` [compound 89] to `CSc1nc(-c2cccc(-c3cccc(-c4cnc(CN5CC6(CCC(=O)N6)C5)c(SC)n4)c3Cl)c2Cl)cnc1CN1CC2(CCC(=O)N2)C1` [compound 90], the IC50 falls from 0.286 nM to 0.156 nM (1.8-fold).

Compared with `CSc1nc(-c2cccc(-c3cccc(-c4cnc(CNC[C@@H]5CCC(=O)N5)c(SC)n4)c3Cl)c2Cl)cnc1CNC[C@@H]1CCC(=O)N1` [compound 91], `Cc1nc(-c2cccc(-c3cccc(-c4cnc(CN5CC6(CCC(=O)N6)C5)c(C)n4)c3Cl)c2Cl)cnc1CN1CC2(CCC(=O)N2)C1` [compound 95] is 4.2-fold lower in IC50: 0.978 nM for the first, 0.233 nM for the second. The second is the more potent here.

`COC1CN(Cc2ncc(-c3cccc(-c4cccc(-c5cnc(CN6CC(OC)C6)c(N(C)C)n5)c4Cl)c3Cl)nc2N(C)C)C1` [compound 97] and `COC1CN(Cc2ncc(-c3cccc(-c4cccc(-c5cnc(CN6CC(OC)C6)c(N(C)C)n5)c4Cl)c3Cl)nc2Cl)C1` [compound 98] are within 1.5-fold of each other in IC50: 0.701 nM for the first, 0.647 nM for the second.

First: CN(C)c1nc(-c2cccc(-c3cccc(-c4cnc(CN5CC(O)C5)c(N(C)C)n4)c3Cl)c2Cl)cnc1CN1CC(O)C1 [compound 99]
Second: CN(C)c1nc(-c2cccc(-c3cccc(-c4cnc(CN5CC(O)C5)c(Cl)n4)c3Cl)c2Cl)cnc1CN1CC(O)C1 [compound 100]
The IC50 of the first is 2.8-fold higher: 0.407 nM for the first, 0.146 nM for the second.
